Test results from ChEMBL document CHEMBL4118217, “Pyrrolinone derivatives as a new class of P2X3 receptor antagonists. Part 1: Initial structure-activity relationship studies of a hit from a high throughput screening” (Bioorg Med Chem Lett, 2018).

Key:
[1] = Half life in rat at 0.5 mg/kg, iv or 1 mg/kg, po; type: ADME, organism-based; conditions: in vivo
[2] = Oral bioavailability in rat at 1 mg/kg; type: ADME, organism-based; conditions: in vivo
[3] = biological target: T1, P2X purinoceptor 3 (Homo sapiens, UniProt P56373)
T1 sequence (P56373 whole entry): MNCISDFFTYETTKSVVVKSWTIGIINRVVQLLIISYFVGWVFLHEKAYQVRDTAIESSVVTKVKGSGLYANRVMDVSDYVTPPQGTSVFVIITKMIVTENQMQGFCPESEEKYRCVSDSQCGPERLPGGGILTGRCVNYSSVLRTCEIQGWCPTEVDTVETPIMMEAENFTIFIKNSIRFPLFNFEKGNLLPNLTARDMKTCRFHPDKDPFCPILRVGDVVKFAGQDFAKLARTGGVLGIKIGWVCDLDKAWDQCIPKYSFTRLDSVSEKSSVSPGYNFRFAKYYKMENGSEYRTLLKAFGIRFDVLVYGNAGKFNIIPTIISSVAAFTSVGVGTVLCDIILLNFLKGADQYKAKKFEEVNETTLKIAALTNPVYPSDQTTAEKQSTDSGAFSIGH

[4] = in vivo; conditions: rat, iv, 0.5 mg/kg
[5] = tested on: Mus musculus; assay: Analgesic activity in iv dosed mouse assessed as inhibition of acetic acid-induced writhes; type: functional

SMILES: COc1ccc(C(=O)C2=C(O)C(=O)N(c3ccc(-c4nnc(C)o4)cc3)C2C2CCCCC2)cc1 (stereo unspecified)
- half-life [1]: 102 min
- bioavailability [2]: 2.9%
- IC50 [3]: 72 nM
- clearance [4]: 5.5 mL/min/kg

SMILES: COc1ccc(C(=O)C2=C(O)C(=O)N(c3ccc(-c4nc(C)no4)cc3)C2C2CCCCC2)cc1 (stereo unspecified)
- half-life [1]: 60 min
- bioavailability [2]: 13.5%
- clearance [4]: 3.4 mL/min/kg

SMILES: CCOC(=O)c1ccc(N2CC(C(=O)c3ccc(OC)cc3)=C(O)C2=O)cc1
- IC50 [3]: > 10000 nM

SMILES: CCOC(=O)c1ccc(N2C(=O)C(O)=C(NC(=O)c3ccc(OC)cc3)C2c2ccccc2)cc1 (stereo unspecified)
- IC50 [3]: 1370 nM

SMILES: CCOC(=O)c1ccc(N2C(=O)C(OC)=C(C(=O)c3ccc(OC)cc3)C2c2ccccc2)cc1 (stereo unspecified)
- IC50 [3]: 9800 nM

SMILES: CCOC(=O)c1ccc(N2C(=O)C(O)=C(/C(=N/O)c3ccc(OC)cc3)C2c2ccccc2)cc1 (stereo unspecified)
- IC50 [3]: 560 nM

SMILES: COc1ccc(C(=O)C2=C(O)C(=O)N(c3ccc(-c4ccon4)cc3)C2C2CCCCC2)cc1 (stereo unspecified) [listing 1 of 2 here]
- half-life [1]: 78 min
- bioavailability [2]: 10.2%

SMILES: CCOC(=O)c1ccc(N2C(=O)C(O)=C(C(=O)c3ccc(OC)cc3)C2c2cccc(F)c2)cc1 (stereo unspecified)
- IC50 [3]: 30 nM

SMILES: CCOC(=O)c1ccc(N2C(=O)C(O)=C(C(=O)c3ccc(OC)cc3)C2c2ccc(F)cc2)cc1 (stereo unspecified)
- half-life [1]: 6 min
- IC50 [3]: 20 nM
- clearance [4]: 37 mL/min/kg

SMILES: COc1ccc(C(=O)C2=C(O)C(=O)N(c3ccc(-c4ccon4)cc3)C2C2CCCCC2)cc1 (stereo unspecified) [listing 2 of 2 here]
- inhibition [5]: Dose-dependent effect

SMILES: CCOC(=O)c1ccc(N2C(=O)C(O)=C(C(=O)c3ccc(OC)cc3)C2c2ccccc2)cc1 (stereo unspecified)
- IC50 [3]: 20 nM

SMILES: CCOC(=O)c1ccc(N2C(=O)C(O)=C(C(=O)c3ccccc3)C2c2ccccc2)cc1 (stereo unspecified)
- IC50 [3]: 370 nM

SMILES: CCOC(=O)c1ccc(N2C(=O)C(O)=C(C(=O)c3ccc(OC)cc3)C2c2ccccc2F)cc1 (stereo unspecified)
- IC50 [3]: 130 nM

SMILES: CCOC(=O)c1ccc(N2C(=O)C(O)=C(c3ccc(OC)cc3)C2c2ccccc2)cc1 (stereo unspecified)
- IC50 [3]: > 10000 nM

SMILES: COc1ccc(C(=O)C2=C([O-])C(=O)N(c3ccc(-c4ccon4)cc3)C2C2CCCCC2)cc1.[Na+] (stereo unspecified)
- ED50 [5]: 2.6 mg/kg

SMILES: COc1ccc(C(=O)C2=C(O)C(=O)N(c3ccc(C(C)=O)cc3)C2c2ccccc2)cc1 (stereo unspecified)
- IC50 [3]: 3280 nM

SMILES: CCOC(=O)c1ccc(N2C(=O)C(NO)=C(C(=O)c3ccc(OC)cc3)C2c2ccccc2)cc1 (stereo unspecified)
- IC50 [3]: 4240 nM

SMILES: CCOC(=O)c1ccc(N2C(=O)C(O)=C(C(C)=O)C2c2ccccc2)cc1 (stereo unspecified)
- IC50 [3]: 4790 nM

SMILES: COc1ccc(C(=O)C2=C(O)C(=O)N(c3ccc(-c4ncco4)cc3)C2C2CCCCC2)cc1 (stereo unspecified)
- IC50 [3]: 135 nM

SMILES: COc1ccc(C(=O)C2=C(O)C(=O)N(c3ccc(C(F)(F)F)cc3)C2c2ccc(F)cc2)cc1 (stereo unspecified)
- IC50 [3]: 360 nM

SMILES: CCOC(=O)c1ccc(N2C(=O)C(O)=C(C(=O)c3ccc(OC)cc3)C2c2ccccc2Cl)cc1 (stereo unspecified)
- IC50 [3]: 90 nM

SMILES: COc1ccc(C(=O)C2=C(O)C(=O)N(c3ccc(CO)cc3)C2c2ccccc2)cc1 (stereo unspecified)
- IC50 [3]: > 10000 nM

SMILES: COc1ccc(C(=O)C2=C(O)C(=O)N(c3ccc(-c4cc(C)no4)cc3)C2C2CCCCC2)cc1 (stereo unspecified)
- half-life [1]: 66 min
- bioavailability [2]: 0.5%
- IC50 [3]: 9 nM
- clearance [4]: 6.2 mL/min/kg

SMILES: COc1ccc(C(=O)C2=C(O)C(=O)N(c3ccc(C(=O)O)cc3)C2c2ccccc2)cc1 (stereo unspecified)
- IC50 [3]: > 10000 nM

SMILES: COc1ccc(C(=O)C2=C(O)C(=O)N(c3ccccc3)C2c2ccccc2)cc1 (stereo unspecified)
- IC50 [3]: > 10000 nM

SMILES: CCOC(=O)c1ccc(N2C(=O)C(O)=C(Cc3ccc(OC)cc3)C2c2ccccc2)cc1 (stereo unspecified)
- IC50 [3]: > 10000 nM

SMILES: COc1ccc(C(=O)C2=C(O)C(=O)N(c3ccc(-c4noc(C)n4)cc3)C2c2ccccc2)cc1 (stereo unspecified)
- IC50 [3]: 100 nM

SMILES: CCOC(=O)c1ccc(N2C(=O)C(O)=C(C(=O)c3ccc(OC)cc3)C2C2CCCCC2)cc1 (stereo unspecified)
- IC50 [3]: 10 nM

SMILES: CCOC(=O)c1ccc(N2C(=O)C(O)=C(C(=O)c3ccc(OC)cc3)C2c2ccc(Cl)cc2)cc1 (stereo unspecified)
- IC50 [3]: 130 nM

SMILES: COc1ccc(C(=O)C2=C(O)C(=O)N(c3ccc(-c4noc(C)n4)cc3)C2C2CCCCC2)cc1 (stereo unspecified)
- half-life [1]: 48 min
- bioavailability [2]: 7.1%
- IC50 [3]: 19 nM
- clearance [4]: 5 mL/min/kg

SMILES: CCOC(=O)c1ccc(N2C(=O)C(O)=C(C(=O)Nc3ccc(OC)cc3)C2c2ccccc2)cc1 (stereo unspecified)
- IC50 [3]: 3930 nM

SMILES: CCOC(=O)c1ccc(N2C(=O)C=C(C(=O)c3ccc(OC)cc3)C2c2ccccc2)cc1 (stereo unspecified)
- IC50 [3]: > 10000 nM
